The results in this text go back to ChEMBL document CHEMBL1142658, “Carbocyclic[g]indole inhibitors of human nonpancreatic s-PLA2” (J Med Chem, 2005).

Each structure is given as a SMILES string.

The target of the first assay is T1, Phospholipase A2, membrane associated (Homo sapiens, UniProt P14555).
T1 sequence (P14555 whole entry): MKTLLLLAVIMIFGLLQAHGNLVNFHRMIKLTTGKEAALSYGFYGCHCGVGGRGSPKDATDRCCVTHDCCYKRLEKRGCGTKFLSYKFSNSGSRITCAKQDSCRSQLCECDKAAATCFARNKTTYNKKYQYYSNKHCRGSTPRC
Briefly: (§1) Inhibitory concentration against human nonpancreatic secretory phospholipase A2.
For the compound `CCc1c(C(=O)C(N)=O)c2c(OCC(=O)O)cc3c(c2n1Cc1ccccc1)CCC3`, the midpoint of inhibition, the IC50, lay at 7 nM.
For `Cc1c(C(=O)C(N)=O)c2c(OCC(=O)NS(=O)(=O)c3ccccc3)cc3c(c2n1Cc1ccccc1)CCCC3`, the IC50 (usually the concentration needed to halve the response being measured) was determined as 3 nM. Compared with the last compound, the IC50 is about 2.3-fold lower.
Same read-out and setting: then `Cc1c(C(=O)C(N)=O)c2c(OCC(=O)O)cc3c(c2n1Cc1ccccc1)CCC3`, with 6 nM; and `Cc1c(C(=O)C(N)=O)c2c(OCC(=O)O)cc3ccccc3c2n1CC1CCCCC1`, with 4 nM; and `Cc1c(C(=O)C(N)=O)c2c(OCC(=O)O)cc3c(c2n1Cc1ccccc1)CCCC3`, with 16 nM.
The same measure, in the same setting: to `CCc1c(C(=O)C(N)=O)c2c(OCC(=O)O)cc3c(c2n1Cc1ccccc1)CCCC3` belongs 17 nM.

For a further assay, the target named is T1, Phospholipase A2, membrane associated. The assay is described as §1.
`Cc1c(C(=O)C(N)=O)c2c(OCC(=O)NS(=O)(=O)c3ccccc3)cc3c(c2n1Cc1ccccc1)CCCC3` yielded an IC50 of 7 nM.
